The values below come from publication PMC3995012, “The Cyanobactin Heterocyclase Enzyme: A Processive Adenylase That Operates with a Defined Order of Reaction” (Angewandte Chemie (International Ed. in English), 2013).

In assay [1] the target is T1, TruD (uncultured Prochloron sp. 06037A, UniProt B2KYG8).
T1 construct: codon-optimized full-length, N-terminal His6-tag removed by TEV protease, expressed in E. coli BL21 (DE3); homodimer with structural Zn
T1 sequence (B2KYG8 2-781): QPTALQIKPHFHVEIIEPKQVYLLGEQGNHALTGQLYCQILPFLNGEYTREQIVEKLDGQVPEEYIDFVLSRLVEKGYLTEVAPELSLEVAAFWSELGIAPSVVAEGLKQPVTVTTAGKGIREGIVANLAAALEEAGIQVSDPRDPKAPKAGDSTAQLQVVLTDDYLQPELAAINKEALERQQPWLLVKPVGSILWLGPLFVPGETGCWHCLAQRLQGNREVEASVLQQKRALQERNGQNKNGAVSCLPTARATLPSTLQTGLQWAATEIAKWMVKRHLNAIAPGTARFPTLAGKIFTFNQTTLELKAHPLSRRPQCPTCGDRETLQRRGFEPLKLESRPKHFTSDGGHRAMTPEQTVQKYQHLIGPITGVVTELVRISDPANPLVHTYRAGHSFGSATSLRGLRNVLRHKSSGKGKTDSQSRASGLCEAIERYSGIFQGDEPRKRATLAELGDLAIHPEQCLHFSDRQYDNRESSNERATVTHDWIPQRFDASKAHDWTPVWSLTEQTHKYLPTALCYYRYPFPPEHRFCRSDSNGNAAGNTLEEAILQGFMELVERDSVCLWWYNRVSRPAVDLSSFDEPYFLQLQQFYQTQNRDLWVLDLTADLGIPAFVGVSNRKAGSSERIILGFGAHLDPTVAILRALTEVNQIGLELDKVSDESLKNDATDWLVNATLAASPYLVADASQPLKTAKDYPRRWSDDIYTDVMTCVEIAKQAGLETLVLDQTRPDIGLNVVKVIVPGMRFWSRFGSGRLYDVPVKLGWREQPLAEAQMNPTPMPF
Nature of the assay: Isothermal titration calorimetry (VP-ITC), nucleotide injected into TruD in 150 mM NaCl, 10 mM HEPES pH 7.4, 1 mM TCEP at 20 or 25 °C, fitted to a one-site model. Format: binding. The protocol: (§1) TruD solutions. The top panels show raw data representing the response to injections, the bottom panels show integrated heats of injections (!) and the best fit (— ) to the […]
(§2) nucleoside. […]
(§3) ITC experiments were carried out using a VP-ITC instrument (MicroCal) in TruD sample buffer (150 mM NaCl, 10 mM HEPES pH 7.4, 1 mM TCEP) at 20 or 25 °C.
(§4) Protein concentrations were determined using absorbance at 280 nm and predicted extinction coefficients (ProtParam, ExPASy) used. The concentration of PatEY53A, which lacks absorbance at 280 nm, was based on absorbance at 230 nm. All solutions were dialyzed overnight. Nucleotides and the #25 peptide were dissolved in TruD sample buffer and the pH was adjusted with small amounts of 1 M NaOH to match the buffer. Cell and syringe solutions were degassed at 18 or 23 °C for 15 min.
Titrations were performed as follows: one injection of 2 µl followed by injections of 5-10 µl at an injection speed of 0.5 µl/min. The stirring speed was 307 rpm; the delay between the injections was 4-6 min. […]
(§5) NMR experiments were performed at 10 °C on a Bruker DRX500 spectrometer equipped with a 5mm TXIz probe. […] Aliquots of 646 µM TruD were added to final concentrations of 50, 100 and 150 µM, and HSQCs were recorded after each addition. For heterocyclization monitoring, the samples contained 200 µM u-15N-PatE precursor peptide and were incubated at 10 °C with 5 µM TruD in heterocyclization buffer with 5% D2O, and spectra were recorded at progressively longer intervals (initially 0.5 h, then 1 h, then 2 h). […]
For sequential assignment, a 1.0 mM sample of u-13C, 15N-PatE precursor peptide in heterocyclization buffer was prepared. […] Equivalent spectra were recorded for fully heterocyclized u-13C, 15N-PatE (concentration 1.0 mM) and a sample where the enzymatic transformation was interrupted after 8 h by gel filtration on a Superdex S75 column (GE Healthcare) in TruD sample buffer (see ITC experimental section), thus allowing assignment of the reaction intermediate. All spectra were processed with NMRPipe ,$- and analyzed with CCPN Analysis 2.1 ,%-. […]

Assay [2] addresses TruD. In words: ITC, injection of nucleosides into TruD solutions. Format: binding, Prochloron spp. The note with it: for pKd: one-site model. On the procedure:
as §1, §2, §3, §4
Titrations were performed as follows: one injection of 2 µl followed by injections of 5-10 µl at an injection speed of 0.5 µl/min. The stirring speed was 307 rpm; the delay between the injections was 4-6 min. To take into account heats of dilution, blank titrations were performed by injecting ligand solution into TruD sample buffer and the averaged heat of dilution was subtracted from the main experiment. Blank titrations were omitted in cases of saturated binding where the averaged residual signal of the last injections was used to determine the heat of dilution. Raw data were processed using MicroCal Origin software. […]
as §5
For sequential assignment, a 1.0 mM sample of u-13C, 15N-PatE precursor peptide in heterocyclization buffer was prepared. […] Equivalent spectra were recorded for fully heterocyclized u-13C, 15N-PatE (concentration 1.0 mM) and a sample where the enzymatic transformation was interrupted after 8 h by gel filtration on a Superdex S75 column (GE Healthcare) in TruD sample buffer (see ITC experimental section), thus allowing assignment of the reaction intermediate. All spectra were processed with NMRPipe ,$- and analyzed with CCPN Analysis 2.1 ,%-.
31P NMR experiments were performed at 10 °C on a Bruker AVANCE III spectrometer equipped with a 5mm BBFO+ (Smart) probe and required the substitution of sample buffer TCEP with DTT. […] 31P NMR spectra were recorded with broadband power-gated 1H decoupling and relaxation delay D1 = 1.5s. […]
For orientation: Isothermal titration calorimetry measures the heat released or taken up as one component is titrated into another.

Assay [3] deals with TruD. Nature of the assay: Heterocyclization reactions analysed by MS (ESI, MALDI, fragmentation). Format: biochemical, Prochloron spp. To be noted: for use as nucleotide cofactor for heterocyclization of PatE2 by TruD: PatE2 with TruD, LC-MS and HSQC NMR of products. The protocol: for 20 min followed by passage through a 0.45 "m filter. The cleared lysate was applied to a Ni-sepharose FF column (GE Healthcare) equilibrated with urea lysis buffer and protein eluted with urea lysis buffer containing 250 mM imidazole. The eluate was then supplemented with 10 mM DTT and incubated at room temperature for 30 min before size-exclusion chromatography (Superdex 75, GE Healthcare) in 150 mM NaCl, 10 mM HEPES pH 7.4, 1 mM TCEP. Peak fractions were pooled and […]
PatE for NMR studies was produced as above, except that E. coli were grown in M9 minimal medium ,*- prepared with 15NH4Cl (Sigma) and additionally with 13C6-glucose (Sigma) for doubly labeled protein. Cells were grown to an optical density at 600 nm of 0.6, at which point expression was induced by addition of 0.5 mM IPTG and grown over night at 30 °C.
Heterocyclization reactions
For all heterocyclization reactions for MS analysis, 100 µM substrate (PatE, PatE mutants and peptides) was incubated with 0.5 µM enzyme in heterocyclization buffer (150 mM NaCl, 10 mM HEPES pH 7.4, 1 mM TCEP, 5 mM ATP, 5 mM MgCl2) for 60 min, 70 min or 16 h at 37 °C. Samples were analyzed by ESI or MALDI MS (LCT, Micromass or 4800 MALDI TOF/TOF Analyzer, ABSciex). […]
For heterocyclization reactions to be monitored by NMR the PatE concentration was increased to 200 µM and 5 µM TruD was used and the incubation temperature reduced to 10 °C. For reaction endpoints analyzed by 31P NMR samples were […]
The assay is based on coupling the TruD-dependent formation of AMP to the lactate dehydrogenase oxidation decay of NADH with NADH concentration monitored by 340 nm absorbance. […]
each added to the assay in this order. […] The decay of NADH concentration were recorded for 40 min and calculated by using extinction coefficient for NADH (#340 = […]
MALDI MS was acquired using a 4800 MALDI TOF/TOF Analyzer (ABSciex, Foster City, CA) equipped with a Nd:YAG 355 nm laser in linear mode and calibrated using the [M+H]+ and [M+2H]2+ peaks of ubiquitin. The spot was analyzed in positive MS mode between 3000 and 10000 m/z, by averaging 1000 laser spots. […]

Setting [4] is: VP-ITC, 150 mM NaCl, 10 mM HEPES pH 7.4, 1 mM TCEP, 20 or 25 °C, read-out: KD.

pKd: −log10 of the molar value. “Also recorded” adds a separate entry of the source. Read-outs that look alike come from different tables or passages of the source.

The pKd is −log10 of the Kd, conventionally taken in molar units. With `Nc1ncnc2c1ncn2[C@@H]1O[C@H](COP(=O)(O)OP(=O)(O)O)[C@@H](O)[C@H]1O` [ADP, adenosine 5'-diphosphate], the pKd in assay [1] (read-out: KD) is 4.70.

In the case of `Nc1ncnc2c1ncn2[C@@H]1O[C@H](COP(=O)(O)OP(=O)(O)O)[C@@H](O)[C@H]1O` [ADP], the pKd in assay [2] (ADP decomposes slowly, only the rapidly emerging endothermic parts of the ITC signals analysed, read-out: apparent KD) is 4.70.

Turning to `Nc1ncnc2c1ncn2[C@@H]1O[C@H](COP(=O)(O)OP(=O)(O)OP(=O)(O)O)[C@@H](O)[C@H]1O` [ATP], in assay [2] (setting [4]), the pKd was 4.72.

Take `Nc1ncnc2c1ncn2[C@@H]1O[C@H](COP(=O)(O)O)[C@@H](O)[C@H]1O` [AMP]: in assay [2] (setting [4]), the pKd was 4.92.

For “ITACITFC [core peptide, the eight-residue core peptide itself]”, the “processing (heterocyclization of cysteines) by TruD” value in assay [3] (100 µM substrate, 0.5 µM enzyme, 150 mM NaCl, 10 mM HEPES pH 7.4, 1 mM TCEP, 5 mM ATP, 5 mM MgCl2, 60 min, 70 min or 16 h at 37 °C, ESI or MALDI MS) is listed as “No reaction”.

On to `Cc1cn([C@H]2C[C@H](O)[C@@H](COP(=O)(O)OP(=O)(O)OP(=O)(O)O)O2)c(=O)[nH]c1=O` [dTTP], for which the “use as nucleotide cofactor for heterocyclization of PatE2 by TruD” value in assay [3] is “can catalyze heterocyclization of cysteine”. The “binding to TruD in ITC experiments” value in assay [2] (injection into a TruD solution) was “not report binding under these conditions; also recorded: does not bind”.

Take `Nc1nc2c(ncn2[C@@H]2O[C@H](COP(=O)(O)OP(=O)(O)OP(=O)(O)O)[C@@H](O)[C@H]2O)c(=O)[nH]1` [GTP]: the “use as nucleotide cofactor for heterocyclization of PatE2 by TruD” value in assay [3] was “can catalyze heterocyclization of cysteine”.

In the case of `Nc1ncnc2c1ncn2[C@@H]1O[C@H](COP(=O)(O)O)[C@@H](O)[C@H]1O` [AMP, adenosine 5'-monophosphate], the pKd in assay [1] (read-out: KD) is 4.92.

As to `Nc1ncnc2c1ncn2[C@@H]1O[C@H](COP(=O)(O)OP(=O)(O)OP(=O)(O)O)[C@@H](O)[C@H]1O` [ATP, adenosine 5'-triphosphate], the pKd in assay [1] is 4.72.
